| Structure (SMILES) | melting point |
| --- | --- |
| Cc1cccc(-c2[nH]c(C(C)C)nc2-c2cccc(-c3ccc(N)cc3)c2)n1 | 107 to 117 °C |
| CN(O)C(=O)NCCCCCCOc1ccc(-c2ccccc2)cc1 | 148 to 150 °C |
| CCc1cnc(OCCOc2ncnc(NS(=O)(=O)c3ccc(C(C)(C)C)cc3)c2Oc2cccc(OC)c2)nc1 | 158 to 160 °C |
| CCOC(=O)C(=CNc1ccc(F)cc1)C(=O)c1ccc(Cl)cc1Cl | 108 to 111 °C |
| O=C(NCc1ccc(Cl)cc1)c1cnc2cc(C(F)(F)F)c(SCc3ccccc3)cc2c1O | 185 to 188 °C |
| CCC1(C(=O)Nc2ccc(OC)cc2)CCCCC1C (centres undefined) | 107 °C |
| CCCc1nc(SC(F)F)c(C(=O)O)n1Cc1ccc(-c2ccccc2S(=O)(=O)NC(=O)NCc2cccs2)cc1 | 142 °C |
| Cc1nc(-n2ccc(O)cc2=O)sc1C(=O)NCc1cccc(F)c1 | 250 to 252 °C |
| COc1ccc(N(CCN2CCC(C(=O)c3ccc(F)cc3)CC2)C(=O)c2ccc([N+](=O)[O-])cc2)c(OC)c1 | 51 to 54 °C |
| CC(C)(C)OC(=O)COC1CCN(C(=O)[C@]2(C)CCCN2C(=O)c2ccc(C#N)cc2)CC1 | 180 to 182 °C |
| O=C1c2cc(Cl)c(Cl)cc2C(=O)N1CCN1CCC(c2noc3cc(F)ccc23)CC1 | 132 to 134 °C |
| O=C(O)c1ccc2oc(-c3ccc(C(F)(F)F)cc3)cc2c1 | > 260 °C |
| Cc1ccc(C(=S)c2cccc3c2NC(=O)C3)cc1 | 167 to 169 °C |
| CCC1C(=O)CCC(Cc2ccc(OC)cc2)(Cc2ccc(OC)cc2)C1C (centres undefined) | 106 to 107 °C |
| COc1cc(C)c(C=O)c(OC)c1OC | 55 to 57 °C |
| C=CCONC(=O)c1nc(-c2ccc(C#N)cc2)cc(N)c1Cl | 218 to 221 °C |
| CSC1NC(=O)N(c2cccs2)C(=O)N1 | 220 to 222 °C |
| OCC#Cc1cc(Cl)cc2nc(-c3ccccc3Cl)oc12 | 165 to 169 °C |
| CC(O)c1ccc(-c2ccc([N+](=O)[O-])cc2)o1 (centres undefined) | 69.5 to 70.5 °C |
| CC(C)(CO)NS(=O)(=O)c1cc(NC(=O)c2cnn3c(C(F)(F)F)cc(-c4ccc(C(F)(F)F)c(Cl)c4)nc23)c(Cl)s1 | 254 °C |
| COC(=O)[C@@H]1Cc2ccccc2N1C(=O)[C@H](CC(=O)OCc1ccccc1)NC(=O)C(F)(F)F | 88 to 90 °C |
| C[C@H]1[C@H](O)C(F)(F)C(=O)N1c1ccc(C#N)c(Cl)c1 | 133 to 139 °C |
| CC1(C)CC(c2ccccn2)c2cc(C(=O)O)ccc2O1 (centres undefined) | 207 to 208 °C |
| CON=C(C)c1c(C)sc(C)c1CS(=O)(=O)C1=NOC(C)(C)C1 | 95 to 96 °C |
| CCOC(=O)c1c(C(F)(F)F)nc(C(F)F)c(C(=O)OC)c1-n1cccn1 | 42 to 52 °C |

| Structure (SMILES) | melting point |
| --- | --- |
| COCOc1cc(Cl)ccc1-c1cc(-c2cccc([N+](=O)[O-])c2)c(C#N)c(N)n1 | 196 to 198 °C |
| COc1cc(C(=O)C(Br)CCC2CCCCC2)c(OC)cc1Cl (centres undefined) | 73 to 74 °C |
| C[C@H](NC(=O)C[C@@H](CCBr)c1ccc(F)cc1)c1ccccc1 | 156 to 158 °C |
| CC1(C)COC(=O)N1c1nc(-c2cccc(Br)c2)cs1 | 142 to 144 °C |
| NNC(=O)c1cnn(-c2ccc(N(CCO)CCO)nn2)c1N | 217 to 219 °C |
| COc1cccc(Nc2nnc(Cc3ccncc3)c3ccccc23)c1 | 118 to 120 °C |
| COC(=O)[C@@H]1C[C@H](NS(C)(=O)=O)C(=O)[C@H]2[C@@]1(C)CC[C@H]1C(=O)O[C@H](c3ccoc3)C[C@]21C | 262 to 265 °C |
| Clc1cc2ccccc2cn1 | < 50 °C |
| CCCCCCCCCc1ccc(Oc2cccc(C#N)c2C#N)cc1 | 74 to 81 °C |
| COC(=O)CCC(=O)CBr | 12 to 15 °C |
| CCCOc1ccc(-c2scc(-c3ccccc3OC(F)(F)F)c2CC(=O)N=C(N)N)cc1 | 90 to 92 °C |
| COc1ccc2c(c1)C1=C(SCC3(CCN(Cc4ccc(F)cc4)CC3)O1)C(=O)C2=O | 196 to 197 °C |
| CC(C=CCO)Oc1ccc(Oc2cnc3cc(F)ccc3n2)cc1 (centres undefined) | 109 to 111 °C |
| Cc1cc(-c2nnc3c4ccccc4c(OCc4ccccn4)nn23)no1 | 234 to 236 °C |
| COc1ccc(-c2cc(-c3nccs3)c(=O)n(C)c2-c2ccncc2)cc1 | 224 to 225 °C |
| CCOC(=O)N1CCC(NC(=O)c2ccc(Cl)cc2Cl)C12CCCCC2 (centres undefined) | 143 to 144 °C |
| COc1ccc(F)c([C@@H]2C[C@H]2CNC(=O)C(C)C)c1 (relative stereo) | 56 to 57 °C |
| O=C(c1sc2c([N+](=O)[O-])c(O)c(O)cc2c1Cl)N1CCCCC1 | 254 to 256 °C |
| O=c1c2cccc(O)c2nc(-c2ccc(O)cc2)n1-c1ccc(OCCCl)cc1 | 274 to 276 °C |
| COC(=O)Cc1cc(=O)[nH]c2cc(F)ccc12 | 255 to 256 °C |
| COc1cc(CO)c(N)c(OC)c1OC | 56 to 58 °C |
| O=S(=O)(Cc1ccccc1)N1CCC(c2ccc(O)cc2O)CC1 | 207 to 208 °C |
| C[C@@H]1CSC(=O)[C@@H]2CCCN2C1=O | 98 to 101 °C |
| CN(CCN(C)c1ccnc2c(NC(=O)c3c(Cl)cccc3Cl)cccc12)C(=O)c1cccnc1 | 195 to 203 °C |
| CCOC(=O)c1ccc(OCc2cnccn2)cc1 | 76.1 °C |

| Structure (SMILES) | melting point |
| --- | --- |
| CC(C(=O)c1ccc(Cl)cc1)n1ncn(-c2ccc(N3CCN(Cc4ccccc4)CC3)cc2)c1=O (centres undefined) | 164 °C |
| COC(=O)c1cc(CCNC(=O)C(F)(F)F)ccc1OC | 61 to 63 °C |
| CCOC(OCC)c1cc(NC(c2ccccc2)(c2ccccc2)c2ccccc2)c(F)c(-c2ccc(C(F)(F)F)nc2)n1 | 58 to 60 °C |
| COC(=O)C(=O)c1cc(Cl)c(OCCOc2ccc3ccccc3c2)c(Cl)c1 | 120 to 121 °C |
| COc1ccc(OCc2ccccn2)c(/C=C/c2cc(/C=C/c3ccc4cc[nH]c4c3)n[nH]2)c1 | 119 to 124 °C |
| Cc1c(C(=O)Nc2ccc(Cl)c([N+](=O)[O-])c2)cnn1-c1ccc(C(F)(F)F)cc1 | 206 to 208 °C |
| CNS(=O)(=O)c1cccc(S(N)(=O)=O)c1 | 125 to 128 °C |
| C=CS(=O)CCNC(=O)NC(=O)CCCl (centres undefined) | 113 to 135 °C |
| CCCN(CCC(=O)Nc1c(SC)nc(C)nc1N(CC)CC)c1ccccc1 | 147 to 149 °C |
| CSC1=Nc2ccc(Cl)cc2Cn2nnnc21 | 131 to 133 °C |
| O=C(c1ccc(F)cc1)C1CCN(CCCO)CC1 | 107 to 109 °C |
| CCCn1c(COCC)nc2c(N)nc3cc(OCc4ccccc4)ccc3c21 | 188 to 189 °C |
| Cc1cccc(NC(=O)c2ccc(C(=O)N3Cc4ccccc4Cc4ccccc43)cc2)c1C | 248 to 251 °C |
| CC(=O)NC(=O)NCC1CC2c3cccc4[nH]c(Br)c(c34)CC2N(C)C1 (centres undefined) | 210 to 212 °C |
| O=c1[nH]c(=O)c2c(N3CCCCC3)cccc2[nH]1 | > 280 °C |
| C=C(Cn1ccnc1)c1ccccc1OCc1ccc(Cl)cc1Cl | 84 to 86 °C |
| CCOC(=O)c1cccc2c(=O)c(C)c(-c3ccc(OC)cc3)oc12 | 137 to 139 °C |
| CCSc1cc(C)nc(SCC)c1NC(=O)CCCCCCCSc1nc2ccccc2o1 | 82 to 84 °C |
| C=CCCNCc1nnc2n1-c1ccc(Cl)cc1C(c1ccccc1)=NC2 | 157 to 160 °C |
| O=C1CCC2=C1C(c1ccc(Br)c(Br)c1)C1=C(CCS1)N2 (centres undefined) | > 260 °C |
| N=Cc1ccccc1[N+](=O)[O-] | 117 to 119 °C |
| O=C(O)COc1cc(Cl)ccc1C(=O)NCCN1CCN(Cc2ccc(Cl)c(Cl)c2)CC1 | 118 to 120 °C |
| CCOC(=O)c1cn2c(cc(Cl)c3ccccc32)n1 | 169 to 170 °C |
| CC(C)(C)C(OC(=O)Cl)C(Oc1ccc(Cl)cc1)N1CN=CN1 (centres undefined) | 75 to 80 °C |
| Nc1nc(N)nc(C23CC4CC(CC(C4)C2)C3)n1 | 261 to 262 °C |

| Structure (SMILES) | melting point |
| --- | --- |
| O=C(NS(=O)(=O)C=Cc1ccc([N+](=O)[O-])cc1)c1ccccc1 | 192 to 195 °C |
| CCOc1cccc(CC(=O)O)c1OCCCc1cc(OC(C)C)nn1Cc1ccc(Cl)cc1Cl | 132 to 133 °C |
| CC(=NOCCC(=O)O)c1ccc(Cl)cc1 | 80 to 83 °C |
| Cc1cc(SCC#Cc2ccccc2C(F)(F)F)ccc1OCC(=O)O | 95 to 97 °C |
| O=C1OC(c2ccc(Cl)cc2)C(Cn2cncn2)(c2ccc(Cl)cc2Cl)O1 (centres undefined) | 178 to 179 °C |
| COc1cn(-c2ccc(N3CCNC3=O)cc2F)nc(-c2ccnn2-c2ccccc2)c1=O | 259 to 260 °C |
| CSc1cc2ccc(-c3ccccc3)cc2cc1OS(=O)(=O)C(F)(F)F | 87.8 to 88.7 °C |
| O=C1NCc2ccccc2C([N+](=O)[O-])N1 (centres undefined) | 93 to 95 °C |
| N#CC1=C(C2CCCCCC2)Nc2n[nH]cc2C1c1ccccc1Cl (centres undefined) | 146 °C |
| CCN(CC)S(=O)(=O)c1cc2c(c(C(=O)NCc3ccccc3)c1)OCCO2 | 125 °C |
| FC(F)(F)c1ccc2c(c1)SSSSS2 | 44 to 50 °C |
| NNC(=O)CCCCCCCCOC1OC(CO)C(O)C(O)C1O (centres undefined) | 194 °C |
| C[C@H](NC(=O)CC(Br)C(=O)c1ccc(Br)cc1)C(=O)O (some centres undefined) | 110 to 113 °C |
| O=C(Nc1c[nH]nc1C(=O)NC1CCCCC1)c1ccccn1 | 262 to 263 °C |
| CCOC=Nc1[nH]nc(Nc2cccc(OC)c2)c1C#N | 181 to 183 °C |
| N=C(N)N1CCC2c3ccccc3CN21 (centres undefined) | 233 to 234 °C |
| Cc1nnc2n1-c1sc(CCc3ccc(O)cc3)cc1C(c1ccccc1Cl)=NC2 | 100 °C |
| Cc1cc(CC2CCCCC2)c(NC(=O)OCc2ccccc2)c(=O)n1CC(=O)O | 150 °C |
| COC(=O)CC(C#Cc1cccc(-c2nnc(C)o2)c1)c1ccc(OC)c(OC2CCCC2)c1 (racemic) | 104 to 105 °C |
| O=[N+]([O-])c1cc(Cl)ccc1/C=C/c1ccc(Cl)cc1[N+](=O)[O-] | 247 to 248 °C |
| CCOC(=O)C(=O)Nc1ccc(NC(=O)C(=O)OCC)nc1 | 178 to 180 °C |
| CC(C)C(C(=O)O)c1ccc(O)c([N+](=O)[O-])c1 (centres undefined) | 103 to 105 °C |
| CCN(CC)c1ccc(C(=NCCO[N+](=O)[O-])NC#N)cn1 | 119 °C |
| CC(C)CN1C(=O)[C@@H](CC(N)=O)O[C@H](c2ccccc2Cl)c2cc(Cl)ccc21 (relative stereo) | 271 to 272 °C |

From a melting point compilation (Tetko et al.; mined from patent text by program, amines drawn as free bases though some values may be those of a salt)
